US20230151025A1, “SUBSTITUTED THIAZOLOPYRIDINES, SALTS THEREOF AND THEIR USE AS HERBICIDALLY ACTIVE SUBSTANCES” (Bayer Aktiengesellschaft, priority 2020, published 2023)

Key:
Type in all cases: in vivo
[1] = system: Abutilon theophrasti (ABUTH); experiment: Herbicidal pre-emergence action (A), 1280 g/ha; details: visual grading after ca. 3 weeks vs untreated controls, 100% = plants have died off, 0% = as control plants
How it was run: (§1)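 Pre-emergence soil-surface spray, 600 l/ha water, 0.5% additive, WP or EC formulation. Sandy loam, double sowing per pot, greenhouse under optimum growth. Visual % damage at ~3 wk vs untreated; 100% = plants died off.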

[2] = system: Alopecurus myosuroides (ALOMY); experiment: Herbicidal pre-emergence action (A), 1280 g/ha; details: visual grading after ca. 3 weeks vs untreated controls, 100% = plants have died off, 0% = as control plants
How it was run: as §1

[3] = system: Amaranthus retroflexus (AMARE); experiment: Herbicidal pre-emergence action (A), 1280 g/ha; details: visual grading after ca. 3 weeks vs untreated controls
How it was run: as §1

[4] = system: Digitaria sanguinalis (DIGSA); experiment: Herbicidal pre-emergence action (A), 1280 g/ha; details: visual grading after ca. 3 weeks vs untreated controls, 100% = plants have died off, 0% = as control plants
How it was run: as §1

[5] = system: Echinochloa crus-galli (ECHCG); experiment: Herbicidal pre-emergence action (A), 1280 g/ha; details: visual grading after ca. 3 weeks vs untreated controls, 100% = plants have died off, 0% = as control plants
How it was run: as §1

[6] = system: Kochia scoparia (KCHSC; Bassia scoparia); experiment: Herbicidal pre-emergence action (A), 1280 g/ha; details: visual grading after ca. 3 weeks vs untreated controls
How it was run: as §1

Lolium rigidum (LOLRI) [7] = experiment: Herbicidal pre-emergence action (A), 1280 g/ha; details: visual grading after ca. 3 weeks vs untreated controls, 100% = plants have died off, 0% = as control plants
How it was run: as §1

[8] = system: Matricaria inodora (MATIN); experiment: Herbicidal pre-emergence action (A), 1280 g/ha; details: visual grading after ca. 3 weeks vs untreated controls
How it was run: as §1

Poa annua (POAAN) [9] = experiment: Herbicidal pre-emergence action (A), 1280 g/ha; details: visual grading after ca. 3 weeks vs untreated controls, 100% = plants have died off, 0% = as control plants
How it was run: as §1

Setaria viridis (SETVI) [10] = experiment: Herbicidal pre-emergence action (A), 1280 g/ha; details: visual grading after ca. 3 weeks vs untreated controls
How it was run: as §1

Stellaria media (STEME) [11] = experiment: Herbicidal pre-emergence action (A), 1280 g/ha; details: visual grading after ca. 3 weeks vs untreated controls
How it was run: as §1

Veronica persica (VERPE) [12] = experiment: Herbicidal pre-emergence action (A), 1280 g/ha; details: visual grading after ca. 3 weeks vs untreated controls
How it was run: as §1

[13] = system: Alopecurus myosuroides (ALOMY); experiment: Herbicidal post-emergence action (B), 1280 g/ha; details: rated visually after about 3 weeks vs untreated controls
How it was run: (§2)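 Percent activity is a visual score taken about 3 weeks after treatment, relative to untreated plants, where 100% means the plants died and 0% means no difference from controls. Plants were sprayed on green parts at the one-leaf stage with an aqueous suspension or emulsion containing 0.5% additive at 600 L/ha.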

[14] = system: Amaranthus retroflexus (AMARE); experiment: Herbicidal post-emergence action (B), 1280 g/ha; details: rated visually after about 3 weeks vs untreated controls
How it was run: as §2

[15] = system: Kochia scoparia (KCHSC; Bassia scoparia); experiment: Herbicidal post-emergence action (B), 1280 g/ha
How it was run: as §2

Poa annua (POAAN) [16] = experiment: Herbicidal post-emergence action (B), 1280 g/ha; details: rated visually after about 3 weeks vs untreated controls
How it was run: as §2

Stellaria media (STEME) [17] = experiment: Herbicidal post-emergence action (B), 1280 g/ha
How it was run: as §2

Veronica persica (VERPE) [18] = experiment: Herbicidal post-emergence action (B), 1280 g/ha
How it was run: as §2

[19] = system: Alopecurus myosuroides (ALOMY); experiment: Herbicidal pre-emergence action (C), 320 g/ha; details: ca. 3 weeks
How it was run: (§3)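 Seeds sown in sandy loam and covered with soil; compounds formulated as WP or EC were sprayed onto the covering soil as aqueous suspension/emulsion with 0.5% additive at 600 l water/ha. Pots kept in greenhouse; damage graded visually after ca. 3 weeks versus untreated controls (0% = as control, 100% = plants dead).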

[20] = system: Amaranthus retroflexus (AMARE); experiment: Herbicidal pre-emergence action (C), 320 g/ha; details: ca. 3 weeks
How it was run: as §3

Lolium rigidum (LOLRI) [21] = experiment: Herbicidal pre-emergence action (C), 320 g/ha; details: ca. 3 weeks
How it was run: as §3

[22] = system: Polygonum convolvulus (POLCO); experiment: Herbicidal pre-emergence action (C), 320 g/ha; details: ca. 3 weeks
How it was run: as §3

Setaria viridis (SETVI) [23] = experiment: Herbicidal pre-emergence action (C), 320 g/ha; details: ca. 3 weeks
How it was run: as §3

Veronica persica (VERPE) [24] = experiment: Herbicidal pre-emergence action (C), 320 g/ha; details: ca. 3 weeks
How it was run: as §3

[25] = system: Digitaria sanguinalis (DIGSA); experiment: Herbicidal pre-emergence action (C), 320 g/ha; details: ca. 3 weeks
Excerpt: (§4) Seeds of mono- and dicotyledonous weed plants and crop plants were sown, in plastic or organic planting pots, in sandy loam and covered with soil. The compounds according to the invention, formulated in the form of wettable powders (WP) or as emulsifiable concentrates (EC), were applied to the surface of the covering soil as aqueous suspension or emulsion, with the addition of 0.5% of an additive, at an application rate of 600 l of water/ha (converted).
(§5) Following treatment, the pots were placed in a greenhouse and kept under optimum growth conditions for the test plants. The visual grading of the damage to the test plants was carried out after ca. 3 weeks in comparison to untreated controls (herbicidal effect in percent (%): 100% effect=plants have died off, 0% effect=as control plants).
(§6) Tables C1 to C13 below show the effects of selected compounds of the general formula (I) according to table 1 on various harmful plants and an application rate corresponding to 320 g/ha obtained by the experimental procedure mentioned above.

[26] = system: Alopecurus myosuroides (ALOMY); experiment: Herbicidal post-emergence action (D), 320 g/ha; details: ca. 3 weeks
How it was run: (§7)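 Post-emergence greenhouse test. Sandy loam; spray at single-leaf stage (2–3 wk after sowing); WP or EC in water + 0.5% additive, 600 l/ha. Visual rating ~3 wk post-spray, % effect vs untreated (0 = control, 100 = dead).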

[27] = system: Amaranthus retroflexus (AMARE); experiment: Herbicidal post-emergence action (D), 320 g/ha; details: ca. 3 weeks
How it was run: as §7

Veronica persica (VERPE) [28] = experiment: Herbicidal post-emergence action (D), 320 g/ha; details: ca. 3 weeks
How it was run: as §7

[29] = system: Echinochloa crus-galli (ECHCG); experiment: Herbicidal post-emergence action (B), 1280 g/ha; details: rated visually after about 3 weeks vs untreated controls
How it was run: as §2

[30] = system: Echinochloa crus-galli (ECHCG); experiment: Herbicidal pre-emergence action (C), 320 g/ha; details: ca. 3 weeks
How it was run: as §3

[31] = system: Matricaria inodora (MATIN); experiment: Herbicidal pre-emergence action (C), 320 g/ha; details: ca. 3 weeks
How it was run: as §3

Viola tricolor (VIOTR) = experiment: Herbicidal pre-emergence action (C), 320 g/ha; details: ca. 3 weeks
How it was run: as §3

[32] = system: Echinochloa crus-galli (ECHCG); experiment: Herbicidal post-emergence action (D), 320 g/ha; details: ca. 3 weeks
How it was run: as §7

[33] = system: Polygonum convolvulus (POLCO); experiment: Herbicidal post-emergence action (D), 320 g/ha; details: ca. 3 weeks
How it was run: as §7

Setaria viridis (SETVI) [34] = experiment: Herbicidal post-emergence action (D), 320 g/ha; details: ca. 3 weeks
How it was run: as §7

[35] = system: Abutilon theophrasti (ABUTH); experiment: Herbicidal post-emergence action (B), 1280 g/ha; details: rated visually after about 3 weeks vs untreated controls
How it was run: as §2

[36] = system: Abutilon theophrasti (ABUTH); experiment: Herbicidal pre-emergence action (C), 320 g/ha; details: ca. 3 weeks
How it was run: as §3

Avena fatua = experiment: Herbicidal pre-emergence action (C), 320 g/ha; details: ca. 3 weeks
Excerpt: as §4, §5, §6

Compound: Cc1cc2scnc2nc1C12CCCCC1O2 (centres unmarked) [Example I-151]
- ABUTH, herbicidal effect in percent (%) [1]: 90%
- ALOMY, herbicidal effect in percent (%) [2]: 100%
- herbicidal effect AMARE [3]: 100%
- DIGSA, herbicidal effect in percent (%) [4]: 100%
- ECHCG, herbicidal effect in percent (%) [5]: 100%
- herbicidal effect KCHSC [6]: 100%
- LOLRI, herbicidal effect in percent (%) (Lolium rigidum (LOLRI) [7]): 100%
- herbicidal effect MATIN [8]: 90%
- POAAN, herbicidal effect in percent (%) (Poa annua (POAAN) [9]): 100%
- herbicidal effect SETVI (Setaria viridis (SETVI) [10]): 100%
- herbicidal effect STEME (Stellaria media (STEME) [11]): 100%
- herbicidal effect VERPE (Veronica persica (VERPE) [12]): 90%
- herbicidal activity ALOMY [13]: 100%
- herbicidal activity AMARE [14]: 100%
- herbicidal effect KCHSC [15]: 100%
- herbicidal activity POAAN (Poa annua (POAAN) [16]): 100%
- herbicidal effect STEME (Stellaria media (STEME) [17]): 100%
- herbicidal effect VERPE (Veronica persica (VERPE) [18]): 100%
- herbicidal effect ALOMY [19]: 100%
- herbicidal effect AMARE [20]: 90%
- herbicidal effect LOLRI (Lolium rigidum (LOLRI) [21]): 90%
- herbicidal effect POLCO [22]: 80%
- herbicidal effect SETVI (Setaria viridis (SETVI) [23]): 100%
- herbicidal effect VERPE (Veronica persica (VERPE) [24]): 90%
- herbicidal effect DIGSA [25]: 100%
- herbicidal effect ALOMY [26]: 80%
- herbicidal effect AMARE [27]: 80%
- herbicidal effect VERPE (Veronica persica (VERPE) [28]): 80%

Compound: CC(C)c1cc2scnc2nc1-c1ccccc1F [Example I-184]
- ALOMY, herbicidal effect in percent (%) [2]: 90%
- herbicidal effect AMARE [3]: 90%
- ECHCG, herbicidal effect in percent (%) [5]: 100%
- herbicidal effect KCHSC [6]: 90%
- LOLRI, herbicidal effect in percent (%) (Lolium rigidum (LOLRI) [7]): 100%
- herbicidal effect MATIN [8]: 90%
- POAAN, herbicidal effect in percent (%) (Poa annua (POAAN) [9]): 100%
- herbicidal effect SETVI (Setaria viridis (SETVI) [10]): 100%
- herbicidal effect STEME (Stellaria media (STEME) [11]): 90%
- herbicidal effect VERPE (Veronica persica (VERPE) [12]): 90%
- herbicidal activity AMARE [14]: 100%
- herbicidal activity ECHCG [29]: 90%
- herbicidal effect KCHSC [15]: 90%
- herbicidal activity POAAN (Poa annua (POAAN) [16]): 90%
- herbicidal effect STEME (Stellaria media (STEME) [17]): 90%
- herbicidal effect VERPE (Veronica persica (VERPE) [18]): 90%
- herbicidal effect ALOMY [19]: 100%
- herbicidal effect AMARE [20]: 90%
- herbicidal effect ECHCG [30]: 100%
- herbicidal effect LOLRI (Lolium rigidum (LOLRI) [21]): 100%
- herbicidal effect MATIN [31]: 80%
- herbicidal effect SETVI (Setaria viridis (SETVI) [23]): 100%
- herbicidal effect VERPE (Veronica persica (VERPE) [24]): 80%
- herbicidal effect VIOTR (Viola tricolor (VIOTR)): 80%
- herbicidal effect ALOMY [26]: 90%
- herbicidal effect AMARE [27]: 80%
- herbicidal effect ECHCG [32]: 80%
- herbicidal effect POLCO [33]: 80%
- herbicidal effect SETVI (Setaria viridis (SETVI) [34]): 90%
- herbicidal effect VERPE (Veronica persica (VERPE) [28]): 90%

Compound: Cc1cscc1-c1nc2ncsc2cc1C [Example I-193]
- ALOMY, herbicidal effect in percent (%) [2]: 90%
- herbicidal effect AMARE [3]: 90%
- ECHCG, herbicidal effect in percent (%) [5]: 100%
- herbicidal effect KCHSC [6]: 90%
- LOLRI, herbicidal effect in percent (%) (Lolium rigidum (LOLRI) [7]): 100%
- herbicidal effect MATIN [8]: 90%
- POAAN, herbicidal effect in percent (%) (Poa annua (POAAN) [9]): 100%
- herbicidal effect SETVI (Setaria viridis (SETVI) [10]): 100%
- herbicidal effect STEME (Stellaria media (STEME) [11]): 100%
- herbicidal effect VERPE (Veronica persica (VERPE) [12]): 90%
- herbicidal activity ABUTH [35]: 90%
- herbicidal activity AMARE [14]: 100%
- herbicidal activity ECHCG [29]: 100%
- herbicidal effect KCHSC [15]: 90%
- herbicidal activity POAAN (Poa annua (POAAN) [16]): 100%
- herbicidal effect STEME (Stellaria media (STEME) [17]): 90%
- herbicidal effect VERPE (Veronica persica (VERPE) [18]): 90%
- herbicidal effect ABUTH [36]: 80%
- herbicidal effect ALOMY [19]: 100%
- herbicidal effect AMARE [20]: 90%
- herbicidal effect ECHCG [30]: 100%
- herbicidal effect LOLRI (Lolium rigidum (LOLRI) [21]): 100%
- herbicidal effect MATIN [31]: 80%
- herbicidal effect POLCO [22]: 80%
- herbicidal effect SETVI (Setaria viridis (SETVI) [23]): 100%
- herbicidal effect VERPE (Veronica persica (VERPE) [24]): 80%
- herbicidal effect AVEFA (Avena fatua): 80%
- herbicidal effect ALOMY [26]: 90%
- herbicidal effect AMARE [27]: 80%
- herbicidal effect ECHCG [32]: 80%
- herbicidal effect SETVI (Setaria viridis (SETVI) [34]): 80%
